Reference: ChEMBL document CHEMBL4732213, “Discovery of novel ceramide analogs with favorable pharmacokinetic properties and combination with AKT inhibitor against colon cancer” (Eur J Med Chem, 2021)
pIC50: −log10 of the molar value. The source made the active and inactive calls. The rule behind the calls is not given here.

Columns and labels:
HT-29 [1] = assay: Down regulation of p-RB expression in human HT29 cells at 20 uM incubated for 24 hrs by Western blotting analysis; assay type: functional, cell-based
HT-29 [2] = assay: Down regulation of CDK4 expression in human HT29 cells at 20 uM incubated for 24 hrs in presence of 10 uM AKT inhibitor MK2206 by Western blotting analysis; assay type: functional, cell-based
HT-29 [3] = assay: Upregulation of p21 protein expression in human HT29 cells at 20 uM incubated for 24 hrs in presence of 10 uM AKT inhibitor MK2206 by Western blotting analysis; assay type: functional, cell-based
HT-29 [4] = assay: Synergistic antiproliferative activity against human HT29 cells assessed as combination index at 20 uM after 72 hrs in presence of 5 uM AKT inhibitor MK2206 by Chou-Talalay method; assay type: functional
[5] = Half life in BALB/c mouse at 50 mg/kg, ip; assay type: ADME, organism-based; conditions: in vivo
[6] = AUC(0 to infinity) in BALB/c mouse at 10 mg/kg, iv; assay type: ADME, organism-based; set-up: route intravenous, time infinity, dose 10 mg/kg; conditions: in vivo
COLO-678 [7] = assay: Additive antiproliferative activity against human COLO-678 cells assessed as combination index at 10 uM after 72 hrs in presence of 2.5 uM AKT inhibitor MK2206 by Chou-Talalay method; assay type: functional
[8] = Antiproliferative activity against human GM00637 cells measured after 72 hrs by sulforhodamine B assay; assay type: cell-based; conditions: GM00637, 72 h
HT-29 [9] = assay: Downregulation of c-Myc protein expression level in human HT29 cells at 20 uM incubated for 24 hrs by Western blotting analysis; assay type: functional, cell-based
T84 [10] = assay: Additive antiproliferative activity against human T84 cells assessed as combination index at 10 uM after 72 hrs in presence of 5 uM AKT inhibitor MK2206 by Chou-Talalay method; assay type: functional
[11] = AUC(0 to t) in BALB/c mouse at 10 mg/kg, iv; assay type: ADME, organism-based; set-up: dose 10 mg/kg; conditions: in vivo
HT-29 [12] = assay: Down regulation of p-RB expression in human HT29 cells at 20 uM incubated for 24 hrs in presence of 10 uM AKT inhibitor MK2206 by Western blotting analysis; assay type: functional, cell-based
SW480 [13] = assay: Additive antiproliferative activity against human SW480 cells assessed as combination index at 40 uM after 72 hrs in presence of 20 uM AKT inhibitor MK2206 by Chou-Talalay method; assay type: functional
HT-29 [14] = assay: Down regulation of CDK6 expression in human HT29 cells at 20 uM incubated for 24 hrs in presence of 10 uM AKT inhibitor MK2206 by Western blotting analysis; assay type: functional, cell-based
COLO-678 [15] = assay: Additive antiproliferative activity against human COLO-678 cells assessed as combination index at 20 uM after 72 hrs in presence of 5 uM AKT inhibitor MK2206 by Chou-Talalay method; assay type: functional
HCT-8 = assay: Antiproliferative activity against human HCT8 cells measured after 72 hrs by sulforhodamine B assay; assay type: functional, cell-based; conditions: HCT-8, 72 h
HT-29 [16] = assay: Additive antiproliferative activity against human HT29 cells assessed as combination index at 10 uM after 72 hrs in presence of 2.5 uM AKT inhibitor MK2206 by Chou-Talalay method; assay type: functional
SW480 [17] = assay: Synergistic antiproliferative activity against human SW480 cells assessed as combination index at 20 uM after 72 hrs in presence of 10 uM AKT inhibitor MK2206 by Chou-Talalay method; assay type: functional
HT-29 [18] = assay: Induction of apoptosis in human HT29 cells assessed as inhibition of AKT phosphorylation at 20 uM after 48 hrs by Western blotting analysis; assay type: functional, cell-based
HT-29 [19] = assay: Downregulation of c-Myc protein expression level in human HT29 cells at 20 uM incubated for 24 hrs in presence of 10 uM AKT inhibitor MK2206 by Western blotting analysis; assay type: functional, cell-based
COLO-678 [20] = assay: Synergistic antiproliferative activity against human COLO-678 cells assessed as combination index at 30 uM after 72 hrs in presence of 7.5 uM AKT inhibitor MK2206 by Chou-Talalay method; assay type: functional
[21] = Toxicity in BALB/c nude mouse xenografted with human HT-29 cells assessed as effect on body weight at 100 mg/kg/day, ip measured every 3 day in presence of 50 mg/kg AKT inhibitor MK2206 by electronic caliper method; assay type: organism-based; conditions: in vivo, 72 h
HT-29 [22] = assay: Induction of ROS generation in human HT29 cells at 20 uM after 16 hrs by flow cytometric analysis; assay type: functional, cell-based
HT-29 [23] = assay: Antitumor activity against human HT-29 cells xenografted in BALB/c nude mouse assessed as tumor growth inhibition at 100 mg/kg/day, ip measured every 3 days by electronic caliper method; assay type: functional; conditions: HT-29, ip, 72 h, time 3 day, read-out: TGI
SW480 [24] = assay: Antiproliferative activity against human SW480 cells measured after 72 hrs by sulforhodamine B assay; assay type: functional, cell-based; conditions: SW480, 72 h
HT-29 [25] = assay: Upregulation of p21 protein expression in human HT29 cells at 20 uM incubated for 24 hrs by Western blotting analysis; assay type: functional, cell-based
HT-29 [26] = assay: Down regulation of CDK2 expression in human HT29 cells at 20 uM incubated for 24 hrs in presence of 10 uM AKT inhibitor MK2206 by Western blotting analysis; assay type: functional, cell-based
LoVo = assay: Antiproliferative activity against human Lovo cells measured after 72 hrs by sulforhodamine B assay; assay type: functional, cell-based
GES1 = assay: Antiproliferative activity against human GES1 cells measured after 72 hrs by sulforhodamine B assay; assay type: cell-based; conditions: GES1, 72 h
HT-29 [27] = assay: Antiproliferative activity against human HT-29 cells measured after 72 hrs by sulforhodamine B assay; assay type: functional, cell-based; conditions: HT-29, 72 h
HT-29 [28] = assay: Induction of cell cycle arrest in human HT29 cells assessed as accumulation at G0/G1 phase at 20 uM after 24 hrs by PI staining based flow cytometry analysis; assay type: functional
HT-29 [29] = assay: Induction of cell cycle arrest in human HT29 cells assessed as accumulation at G0/G1 phase at 20 uM after 24 hrs in presence of 10 uM AKT inhibitor MK2206 by PI staining based flow cytometry analysis; assay type: functional
T84 [30] = assay: Synergistic antiproliferative activity against human T84 cells assessed as combination index at 20 uM after 72 hrs in presence of 10 uM AKT inhibitor MK2206 by Chou-Talalay method; assay type: functional
HT-29 [31] = assay: Induction of apoptosis in human HT29 cells at 15 uM after 48 hrs by Annexin-V-FITC/PI staining based flow cytometric analysis; assay type: functional, cell-based
HCT-116 = assay: Antiproliferative activity against human HCT116 cells measured after 72 hrs by sulforhodamine B assay; assay type: functional, cell-based; conditions: HCT-116, 72 h
COLO-678 [32] = assay: Antiproliferative activity against human COLO 678 cells measured after 72 hrs by sulforhodamine B assay; assay type: functional, cell-based; conditions: COLO-678, 72 h
WI-38 = assay: Antiproliferative activity against human WI-38 cells measured after 72 hrs by sulforhodamine B assay; assay type: cell-based; conditions: WI-38, 72 h
T84 [33] = assay: Antiproliferative activity against human T84 cells measured after 72 hrs by sulforhodamine B assay; assay type: functional, cell-based; conditions: T84, 72 h
T84 [34] = assay: Additive antiproliferative activity against human T84 cells assessed as combination index at 5 uM after 72 hrs in presence of 2.5 uM AKT inhibitor MK2206 by Chou-Talalay method; assay type: functional
[35] = AUC(0 to infinity) in BALB/c mouse at 50 mg/kg, ip; assay type: ADME, organism-based; set-up: time infinity, route intraperitoneal, dose 50 mg/kg; conditions: in vivo

half-life [5]: 3.3 h | AUC(0-inf) [6]: 3060 ng·h/mL | AUC(0-t) [11]: 3060 ng·h/mL | pIC50 (HCT-8): 4.66 | pIC50 (SW480 [24]): 4.64 | pIC50 (LoVo): 4.58 | pIC50 (HT-29 [27]): 4.75 | pIC50 (HCT-116): 4.59 | pIC50 (COLO-678 [32]): 4.68 | AUC(0-inf) [35]: 15700 ng·h/mL
SMILES: CCCCCCCOc1ccc(CCC(CO)(CO)NC(C)=O)c2ccccc12
Activity (HT-29 [1]): inactive | Activity (HT-29 [2]): Active | Activity (HT-29 [3]): Active | CI (HT-29 [4]): 0.77 | CI (COLO-678 [7]): 0.87 | pIC50 [8]: 4.32 | Activity (HT-29 [9]): inactive | CI (T84 [10]): 1.01 | Activity (HT-29 [12]): Active | CI (SW480 [13]): 0.97 | Activity (HT-29 [14]): Active | CI (COLO-678 [15]): 0.89 | CI (HT-29 [16]): 1.05 | CI (SW480 [17]): 0.62 | Activity (HT-29 [18]): Active | Activity (HT-29 [19]): Active | CI (COLO-678 [20]): 0.43 | Activity [21]: Non-Toxic | Activity (HT-29 [22]): inactive | inhibition in vivo at 100 mg/kg/day (HT-29 [23]): 25.4% | Activity (HT-29 [25]): inactive | Activity (HT-29 [26]): Active | pIC50 (GES1): 4.38 | Activity (HT-29 [28]): inactive | Activity (HT-29 [29]): Active | CI (T84 [30]): 0.65 | Activity (HT-29 [31]): inactive | pIC50 (WI-38): 4.29 | pIC50 (T84 [33]): 4.83 | CI (T84 [34]): 1.1
